Results published in US12612424B2, “HPK1 inhibitors and uses thereof” (Regor Pharmaceuticals, Inc., priority 2019, dated 2026).

Test system: Human Pan T Cell (IL-2 release)
Assay: IL2 released by human pan T cell upon anti-CD3/anti-CD28 stimulation (ELISA)
Format: cell-based
Settings: human pan T cells; for maximal fold induction / EC (2-fold response) / EC50: Homo sapiens, T-cell; for maximal fold induction / EC (2-fold response): 48 h; for maximal fold induction: response of IL-2 over DMSO control, anti-CD3/anti-CD28, 48 hours, ELISA, read-out: IL-2 Max Fold Response; for EC50: IL-2 response, calculated with GraphPad Prism
How it was run: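 Primary human pan-T cells, negatively isolated from PBMC, plated at 100,000 cells/well and stimulated with immobilized anti-CD3 plus soluble anti-CD28 in presence of test compound at varying concentrations. After 2 days, secreted IL-2 in supernatant quantified by ELISA.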

[1] = concentration of compound that gives 200% IL-2 response (2 folds) over DMSO control

COc1cc2c(cc1Nc1ncc(Cl)c(-n3cc(P(C)(C)=O)c4ccccc43)n1)CN(C)CC2 [Example 1, (1-(5-Chloro-2-((6-methoxy-2-methyl-1,2,3,4-tetrahydroisoquinolin-7-yl)amino)pyrimidin-4-yl)-1H-indol-3-yl)dimethylphosphine oxide]
maximal fold induction: < 2

COc1nc2c(cc1Nc1ncc(Cl)c(N3CCc4ccccc43)n1)CN(C)CC2 [Example 19, N-(5-chloro-4-(indolin-1-yl)pyrimidin-2-yl)-2-methoxy-6-methyl-5,6,7,8-tetrahydro-1,6-naphthyridin-3-amine]
EC (2-fold response) [1]: 0.1 to 0.5 µM | maximal fold induction: > 2 | EC50: 100 to 500 nM

COc1cc2c(cc1Nc1ncc(Cl)c(N3CCc4cc(F)ccc43)n1)CN(C)CC2 [Example 20, N-(5-chloro-4-(5-fluoroindolin-1-yl)pyrimidin-2-yl)-6-methoxy-2-methyl-1,2,3,4-tetrahydroisoquinolin-7-amine]
EC (2-fold response) [1]: 0.1 to 0.5 µM | maximal fold induction: > 2 | EC50: 100 to 500 nM

COc1cc2c(cc1Nc1ncc(Cl)c(N3CCc4ccc(F)cc43)n1)CN(C)CC2 [Example 21, N-(5-chloro-4-(6-fluoroindolin-1-yl)pyrimidin-2-yl)-6-methoxy-2-methyl-1,2,3,4-tetrahydroisoquinolin-7-amine]
EC (2-fold response) [1]: 0.1 to 0.5 µM | maximal fold induction: > 2 | EC50: 100 to 500 nM

COc1cc2c(cc1Nc1ncc(Cl)c(N3CCc4ccccc43)n1)CN(C(C)C)CC2 [Example 22, N-(5-chloro-4-(indolin-1-yl)pyrimidin-2-yl)-2-isopropyl-6-methoxy-1,2,3,4-tetrahydroisoquinolin-7-amine]
EC (2-fold response) [1]: 0.1 to 0.5 µM | maximal fold induction: > 2 | EC50: 500 to 1000 nM

COc1cc2c(cc1Nc1ncc(Cl)c(N3CCc4ccccc43)n1)CNCC2 [Example 23, N-(5-chloro-4-(indolin-1-yl)pyrimidin-2-yl)-6-methoxy-1,2,3,4-tetrahydroisoquinolin-7-amine]
maximal fold induction: < 2 | EC50: 100 to 500 nM

COc1cc2c(cc1Nc1ncc(Cl)c(-n3ncc4ccccc43)n1)CN(C)CC2 [Example 24, N-(5-Chloro-4-(1H-indazol-1-yl)pyrimidin-2-yl)-6-methoxy-2-methyl-1,2,3,4-tetrahydroisoquinolin-7-amine]
maximal fold induction: < 2 | EC50: 500 to 1000 nM

COc1cc2c(cc1Nc1ncc(Cl)c(N3CC(C)(C)c4ccccc43)n1)CN(C)CC2 [Example 25, N-(5-Chloro-4-(3,3-dimethylindolin-1-yl)pyrimidin-2-yl)-6-methoxy-2-methyl-1,2,3,4-tetrahydroisoquinolin-7-amine]
EC (2-fold response) [1]: 0.1 to 0.5 µM | maximal fold induction: > 2 | EC50: 500 to 1000 nM

COc1nc2c(cc1Nc1ncc(Cl)c(N3CCc4ncccc43)n1)CN(C)CC2 [Example 29, N-(5-Chloro-4-(2,3-dihydro-1H-pyrrolo[3,2-b]pyridin-1-yl)pyrimidin-2-yl)-2-methoxy-6-methyl-5,6,7,8-tetrahydro-1,6-naphthyridin-3-amine]
maximal fold induction: < 2 | EC50: 500 to 1000 nM

COc1cc2c(cc1Nc1ncc(Cl)c(N3CC(C(=O)O)c4ccccc43)n1)CN(C)CC2 (stereo not drawn) [Example 32, 1-(5-Chloro-2-((6-methoxy-2-methyl-1,2,3,4-tetrahydroisoquinolin-7-yl)amino)pyrimidin-4-yl)indoline-3-carboxylic acid]
EC (2-fold response) [1]: 0.1 to 0.5 µM | maximal fold induction: > 2 | EC50: 100 to 500 nM

COc1cc2c(cc1Nc1ncc(Cl)c(N3CC(C(N)=O)c4ccccc43)n1)CN(C)CC2 (stereo not drawn) [Example 33, 1-(5-Chloro-2-((6-methoxy-2-methyl-1,2,3,4-tetrahydroisoquinolin-7-yl)amino)pyrimidin-4-yl)indoline-3-carboxamide]
maximal fold induction: < 2

COc1cc2c(cc1Nc1ncc(Cl)c(-n3cc(C(N)=O)c4ccccc43)n1)CN(C)CC2 [Example 34]
maximal fold induction: < 2

COc1cc2c(cc1Nc1ncc(Cl)c(-n3cc(C(=O)O)c4ccccc43)n1)CN(C)CC2 [Example 35]
maximal fold induction: > 2 | EC50: 500 to 1000 nM | EC2x (nM) [1]: + (“+”, for greater than 1 μM)

COc1cc2c(cc1Nc1ncc3ccn(-c4ccccc4)c3n1)CN(C)CC2 [Example 36, 6-methoxy-2-methyl-N-(7-phenyl-7H-pyrrolo[2,3-d]pyrimidin-2-yl)-1,2,3,4-tetrahydroisoquinolin-7-amine]
maximal fold induction: < 2

COc1cc2c(cc1Nc1ncc3ccn(-c4ccccn4)c3n1)CN(C)CC2 [Example 37, 6-Methoxy-2-methyl-N-(7-(pyridin-2-yl)-7H-pyrrolo[2,3-d]pyrimidin-2-yl)-1,2,3,4-tetrahydroisoquinolin-7-amine]
maximal fold induction: < 2 | EC50: 100 to 500 nM
